Test results reported in patent US12071424B2, “IRE1 small molecule inhibitors” (Cornell University, priority 2017, dated 2024).

Legend:
IRE1a [1] = target: T1, IRE1a (Homo sapiens, UniProt O75460); experiment: In vitro FRET assay (IRE1a cleavage of XBP1 RNA probe); format: biochemical; details: 2 nM SignalChem IRE1a, tested as Formic Acid Salt (37: HCl Salt)
T1 construct: purchased SignalChem
Method in brief: Human

293T cells = experiment: Growth assay (cytotoxicity); format: cell-based, human; details: Homo sapiens, HEK-293T, Formic Acid Salt (37: HCl Salt)
Procedure: A growth assay was performed to evaluate the compounds disclosed herein for cytotoxicity. Briefly, 5,000,000 293T cells were resuspended in 18 mL of cDMEM for a final concentration of […]. […] In a separate 96 well dilution plate, 199 uL cDMEM and 1 uL of DMSO or any one of the compounds disclosed herein (shown as Test Compound 1, 2, 3, 4, 5, or 6 below) were added to wells A4, A8, C4, C8, E4, E8, G4, and G8, 133.3 uL cDMEM was added to wells 1, 2, 3, 5, 6, and 7 in rows A, C, E and G of the dilution plate. Compounds were serially diluted leftwards in threefold dilutions (66.7 uL into 133.3 uL cDMEM). 20 uL of each dilution was transferred in duplicate (duplicates in vertical paired wells) to the cells plated in the 96-well plate shown in Table 5, to the total concentrations shown below. 200 uL cDMEM was addled to media wells (wells G5-H8). The plate was then placed in a humidified chamber for a […], and then photographed (media was more yellow in wells with potent cell growth). Absorbance was then measured at ˜[…] (lower for more acidic media) and ˜450 nM (higher for more acidic media).

IRE1a [2] = experiment: IRE1a Endoribonuclease Nanoluciferase Assay (XBP1 luciferase reporter in 293T cells); format: cell-based, human; details: Homo sapiens, HEK-293T, ER stressor, tested as Formic Acid Salt (37: HCl Salt)
Method in brief: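 293T cells transiently transfected with a PGK-Luc2-P2A-XBP1u-Nanoluciferase-Pest reporter, replated after 6 h, then treated next day with ER stressors ± inhibitors. After lysis, firefly luminescence then nanoluciferase luminescence read sequentially (1000 ms integration each).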

hERG channel = target: T2, hERG channel (Homo sapiens, UniProt Q12809); experiment: hERG potassium ion channel automated planar clamp (QPatch) in stable CHO cell line; format: cell-based; details: Formic Acid Salt (37: HCl Salt), read-out: hERG channel blockade Mean IC50
T2 construct: expressed in transfected cells
Procedure: Blockade of the cardiac ion channel coded by the hERG gene can lead to cardiac arrhythmia. […] To determine the viability of the compounds disclosed herein as pharmacological agents that would not affect the hERG channel blockade, a standard automated planar clamp method was employed to determine the IC50 for various test compounds on their inhibition of the channel. An electrophysiological assay was prepared to measure the electric current passing through the hERG channel expressed in a stable CHO cell line by applying the planar clamp method. This assay was performed using the automated QPatch platform (Sophion, Denmark) which allows fast and accurate electrophysiological characterization of the hERG ion channel and the determination of IC50 values for the test compounds, as shown in Table 9.

T1 sequence (O75460 19-977): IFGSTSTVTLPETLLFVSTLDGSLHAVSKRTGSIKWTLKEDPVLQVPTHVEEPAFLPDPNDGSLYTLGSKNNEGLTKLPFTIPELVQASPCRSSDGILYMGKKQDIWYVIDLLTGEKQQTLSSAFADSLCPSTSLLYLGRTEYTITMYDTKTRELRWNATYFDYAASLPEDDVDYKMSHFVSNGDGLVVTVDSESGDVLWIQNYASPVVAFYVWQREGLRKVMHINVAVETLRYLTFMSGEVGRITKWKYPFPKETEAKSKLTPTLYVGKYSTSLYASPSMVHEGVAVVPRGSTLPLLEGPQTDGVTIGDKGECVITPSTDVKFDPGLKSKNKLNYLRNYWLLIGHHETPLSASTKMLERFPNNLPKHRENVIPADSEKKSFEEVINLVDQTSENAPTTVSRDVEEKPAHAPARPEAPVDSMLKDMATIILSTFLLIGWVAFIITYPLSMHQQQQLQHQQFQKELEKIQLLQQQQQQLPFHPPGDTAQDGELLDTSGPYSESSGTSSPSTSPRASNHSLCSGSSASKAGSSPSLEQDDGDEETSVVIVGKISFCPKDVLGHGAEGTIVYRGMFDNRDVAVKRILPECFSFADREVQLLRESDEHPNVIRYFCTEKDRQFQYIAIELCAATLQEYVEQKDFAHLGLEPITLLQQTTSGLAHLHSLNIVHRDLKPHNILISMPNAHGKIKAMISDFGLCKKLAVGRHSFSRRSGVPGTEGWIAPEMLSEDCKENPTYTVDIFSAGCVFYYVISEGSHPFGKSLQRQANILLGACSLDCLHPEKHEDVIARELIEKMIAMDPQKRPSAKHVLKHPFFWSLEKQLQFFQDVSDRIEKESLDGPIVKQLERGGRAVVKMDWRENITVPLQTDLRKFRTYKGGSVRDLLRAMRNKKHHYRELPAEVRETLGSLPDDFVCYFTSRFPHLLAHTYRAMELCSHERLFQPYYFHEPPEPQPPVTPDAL
T2 sequence (Q12809 whole entry): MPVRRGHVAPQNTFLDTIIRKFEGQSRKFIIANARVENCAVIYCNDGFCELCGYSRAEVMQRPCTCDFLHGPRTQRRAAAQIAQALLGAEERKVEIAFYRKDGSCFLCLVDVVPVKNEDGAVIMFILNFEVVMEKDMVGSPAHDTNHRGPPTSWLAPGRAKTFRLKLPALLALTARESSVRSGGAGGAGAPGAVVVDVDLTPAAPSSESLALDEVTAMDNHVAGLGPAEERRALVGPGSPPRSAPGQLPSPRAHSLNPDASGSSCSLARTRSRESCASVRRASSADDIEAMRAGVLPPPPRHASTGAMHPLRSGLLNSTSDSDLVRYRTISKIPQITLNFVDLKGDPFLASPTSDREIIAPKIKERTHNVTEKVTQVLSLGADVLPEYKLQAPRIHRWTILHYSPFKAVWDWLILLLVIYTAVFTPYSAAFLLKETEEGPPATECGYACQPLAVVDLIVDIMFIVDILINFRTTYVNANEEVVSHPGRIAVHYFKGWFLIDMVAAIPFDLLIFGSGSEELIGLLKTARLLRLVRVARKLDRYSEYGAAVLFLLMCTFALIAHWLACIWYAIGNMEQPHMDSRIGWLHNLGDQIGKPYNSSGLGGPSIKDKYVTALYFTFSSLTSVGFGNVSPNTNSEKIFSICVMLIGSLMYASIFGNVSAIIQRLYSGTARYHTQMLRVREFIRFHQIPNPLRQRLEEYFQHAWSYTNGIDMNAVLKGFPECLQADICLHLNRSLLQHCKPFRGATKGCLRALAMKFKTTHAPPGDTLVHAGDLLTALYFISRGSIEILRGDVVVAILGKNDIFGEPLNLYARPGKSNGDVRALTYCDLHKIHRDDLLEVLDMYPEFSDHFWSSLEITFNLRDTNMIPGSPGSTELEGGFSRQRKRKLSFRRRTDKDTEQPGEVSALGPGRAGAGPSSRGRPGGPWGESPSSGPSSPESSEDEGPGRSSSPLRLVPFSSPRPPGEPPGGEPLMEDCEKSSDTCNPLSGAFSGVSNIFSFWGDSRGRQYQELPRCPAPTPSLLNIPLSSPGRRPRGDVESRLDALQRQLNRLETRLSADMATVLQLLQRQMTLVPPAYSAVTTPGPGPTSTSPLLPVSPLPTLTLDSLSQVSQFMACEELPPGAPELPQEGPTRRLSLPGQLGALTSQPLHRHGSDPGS

Compound | IC50 (IRE1a [1]) [nM] | viability at 0.185 µM (293T cells) [%] | viability at 0.5556 µM (293T cells) [%] | viability at 1.667 µM (293T cells) [%] | viability at 5 µM (293T cells) [%] | EC50 (IRE1a [2]) [nM] | IC50 (hERG channel) [nM]
CCc1cc(-c2cc(NS(=O)(=O)c3ccccc3Cl)n[nH]2)cc2cnc(N[C@H]3CC[C@H](N)CC3)nc12 [Compound 29, N-(5-(2-(((1r,4r)-4-aminocyclohexyl)amino)-8-ethylquinazolin-6-yl)-1H-pyrazol-3-yl)-2-chlorobenzene-sulfonamide] | ≤ 5 | 75 to 100 | 75 to 100 | 75 to 100 | 75 to 100 | 100 to 10000 | 
CCc1cc(-c2nnc(NS(=O)(=O)c3ccccc3Cl)cc2C)cc2cnc(N[C@H]3CC[C@H](N)CC3)nc12 [Compound 67, N-(6-(2-(((1r,4r)-4-aminocyclohexyl)amino)-8-ethylquinazolin-6-yl)-5-methylpyridazin-3-yl)-2-chlorobenzene-sulfonamide] | ≤ 5 | 75 to 100 | 75 to 100 | 50 to 75 | 50 to 75 | 5 to 50 | 
CCc1cc(-c2cnc(NS(=O)(=O)c3ccccc3Cl)nc2C)cc2cnc(N[C@H]3CC[C@H](N)CC3)nc12 [Compound 23] | ≤ 5 | 75 to 100 | 50 to 75 | 50 to 75 | 75 to 100 | ≤ 5 | 
CCc1cc(-c2ccc(NS(=O)(=O)c3ccccc3Cl)c(F)c2C)cc2cnc(N[C@H]3CC[C@H](N)CC3)nc12 [Compound 71, N-(4-(2-(((1r,4r)-4-aminocyclohexyl)amino)-8-ethylquinazolin-6-yl)-2-fluoro-3-methylphenyl)-2-chlorobenzene-sulfonamide] | ≤ 5 | 75 to 100 | 75 to 100 | 50 to 75 | 25 to 50 | ≤ 5 | 
CCc1cc(-c2cnc(NS(=O)(=O)c3ccccc3Cl)cn2)cc2cnc(N[C@H]3CC[C@H](N)CC3)nc12 [Compound 25, N-(S-(2-(((1r,4r)-4-aminocyclohexyl)amino)-8-ethylquinazolin-6-yl)pyrazin-2-yl)-2-chlorobenzene-sulfonamide] | ≤ 5 | 75 to 100 | 75 to 100 | 75 to 100 | 75 to 100 | ≤ 5 | 
CCc1cc(-c2cnc(NS(=O)(=O)c3ccccc3Cl)nc2OC)cc2cnc(N[C@H]3CC[C@H](N)CC3)nc12 [Compound 46, N-(5-(2-(((1r,4r)-4-aminocyclohexyl)amino)-8-ethylquinazolin-6-yl)-4-methoxypyrimidin-2-yl)-2-chlorobenzene-sulfonamide] | ≤ 5 | 75 to 100 | 75 to 100 | 75 to 100 | 75 to 100 | ≤ 5 | 
CCc1cc(-c2cnc(NS(=O)(=O)c3ccccc3Cl)c(F)c2)cc2cnc(N[C@H]3CC[C@H](N)CC3)nc12 [Compound 55, N-(5-(2-(((1r,4r)-4-aminocyclohexyl)amino)-8-ethylquinazolin-6-yl)-3-fluoropyridin-2-yl)-2-chlorobenzene-sulfonamide] | ≤ 5 | 75 to 100 | 75 to 100 | 75 to 100 | 75 to 100 | ≤ 5 | 
CCc1cc(-c2ncc(NS(=O)(=O)c3ccccc3Cl)cn2)cc2cnc(N[C@H]3CC[C@H](N)CC3)nc12 [Compound 33] | ≤ 5 | 75 to 100 | 75 to 100 | 75 to 100 | 50 to 75 | ≤ 5 | 
CCc1cc(-c2ccc(NS(=O)(=O)c3ccccc3Cl)c(F)c2)cc2cnc(N[C@H]3CC[C@H](N)CC3)nc12 [Compound 24, N-(4-(2-(((1r,4r)-4-aminocyclohexyl)amino)-8-ethylquinazolin-6-yl)-2-fluorophenyl)-2-chlorobenzene-sulfonamide] | ≤ 5 | 75 to 100 | 75 to 100 | 50 to 75 | 50 to 75 | ≤ 5 | 1000 to 10000
CCc1cc(-c2ccc(NS(=O)(=O)c3ccccc3Cl)c(F)c2)cc2cnc(N[C@H]3CC[C@H](N(C)C)CC3)nc12 [Compound 69, 2-chloro-N-(4-(2-(((1r,4r)-4-(dimethylamino)cyclohexyl)amino)-8-ethylquinazolin-6-yl)-2-fluorophenyl) benzene-sulfonamide] | ≤ 5 |  | 75 to 100 | 50 to 75 | 50 to 75 | ≤ 5 | 10000 to 50000
CCc1cc(-c2ccc(NS(=O)(=O)c3ccccc3Cl)cn2)cc2cnc(N[C@H]3CC[C@H](N)CC3)nc12 [Compound 28] | ≤ 5 | 75 to 100 | 75 to 100 | 50 to 75 | 25 to 50 | ≤ 5 | 
CCc1cc(-c2nnc(NS(=O)(=O)c3ccccc3Cl)cc2OC)cc2cnc(N[C@H]3CC[C@H](N)CC3)nc12 [Compound 65, N-(6-(2-(((1r,4r)-4-aminocyclohexyl)amino)-8-ethylquinazolin-6-yl)-5-methoxypyridazin-3-yl)-2-chlorobenzene-sulfonamide] | ≤ 5 | 75 to 100 | 75 to 100 | 75 to 100 | 50 to 75 | 5 to 50 | 
CCc1cc(-c2ncc(NS(=O)(=O)c3ccccc3Cl)cc2F)cc2cnc(N[C@H]3CC[C@H](N)CC3)nc12 [Compound 52] | ≤ 5 | 75 to 100 | 75 to 100 | 75 to 100 | 50 to 75 | ≤ 5 | 
CCc1cc(-c2ccc(NS(=O)(=O)c3ccccc3Cl)nc2)cc2cnc(N[C@H]3CC[C@H](N)CC3)nc12 [Compound 27, N-(5-(2-(((1r,4)-4-aminocyclohexyl)amino)-8-ethylquinazolin-6-yl)pyridin-2-yl)-2-chlorobenzene-sulfonamide] | ≤ 5 | 75 to 100 | 75 to 100 | 50 to 75 | 25 to 50 | ≤ 5 | 
CCc1cc(NS(=O)(=O)c2ccccc2Cl)ccc1-c1cc(CC)c2nc(N[C@H]3CC[C@H](N)CC3)ncc2c1 [Compound 34, N-(4-(2-(((1r,4r)-4-aminocyclohexyl)amino)-8-ethylquinazolin-6-yl)-3-ethylphenyl)-2-chlorobenzene-sulfonamide] | ≤ 5 | 75 to 100 | 75 to 100 | 75 to 100 | ≤ 25 | 5 to 50 | 
CCc1cc(-c2ccc(NS(=O)(=O)c3ccccc3Cl)cc2F)cc2cnc(N[C@H]3CC[C@H](N)CC3)nc12 [Compound 35, N-(4-(2-(((1r,4r)-4-aminocyclohexyl)amino)-8-ethylquinazolin-6-yl)-3-fluorophenyl)-2-chlorobenzene-sulfonamide] | ≤ 5 | 75 to 100 | 75 to 100 | 50 to 75 | 25 to 50 | ≤ 5 | 
CCc1cc(-c2ccc(NS(=O)(=O)c3ccccc3Cl)nn2)cc2cnc(N[C@H]3CC[C@H](N)CC3)nc12 [Compound 32, N-(6-(2-(((1r,4r)-4-aminocyclohexyl)amino)-8-ethylquinazolin-6-yl)pyridazin-3-yl)-2-chlorobenzene-sulfonamide] | ≤ 5 | 75 to 100 | 75 to 100 | 50 to 75 | 25 to 50 | ≤ 5 | 
CCc1cc(-c2cc(F)c(NS(=O)(=O)c3ccccc3Cl)nc2C)cc2cnc(N[C@H]3CC[C@H](N(C)C)CC3)nc12 [Compound 97, 2-chloro-N-(5-(2-(((1r,4r)-4-(dimethylamino)cyclohexyl)amino)-8-ethylquinazolin-6-yl)-3-fluoro-6-methylpyridin-2-yl)benzenesulfonamide] | ≤ 5 |  |  |  |  | ≤ 5 | 
